# Entries after “also recorded” stand apart in the source; their conditions may differ.
# Legend:
# [1] = tested on: SMN; assay: SMN levels in human motor neurons derived from patient iPS cells; assay type: cell-based; conditions: two days after treatment
# Experimental: GFP expressing motor neurons were derived from an […] patient iPS cells as described below. After growing for approximately 1 week, motor neurons were treated with allsterpaullone. Two days after treatment with allsterpaullone, cells were fixed and stained with SMN antibody or GFP antibody. […] Induced pluripotent stem cells were generated from an SMA patient fibroblast line from Coriell (GM09677) and differentiated into motor neurons according to methods adapted from Dimos, J. T., et. al. Science (2008) 321, 1218-122, Epub Jul. 31, 2008).
# [2] = tested on: ES-cell derived Motor Neurons with SMN knockdown; assay: Motor neuron survival assay after SMN knockdown (shRNA lentivirus); assay type: cell-based, mouse; conditions: for surviving motor neurons compared to DMSO: 1.25 and 2.5 uM
# Text: To test for survival, motor neurons were infected with three lentiviral constructs acquired from Open Biosystems (pGIPZ): a non-silencing (NS) shRNA and two with unique shRNA sequences directed against the Smn transcript. […] Quantification of SMN knockdown were made in 3T3 cells (FIGS. 39a-39b) and in motor neurons by sorting ES cell derived motor neurons (cherry positive) infected with the pGIPZ lentiviruses (GFP positive cells) by FACS and quantifying the amount of SMN by Western blot.
# Effect of reduced SMN levels on motor neuron survival was investigated next. Motor neurons were plated and infected with the various lentiviral constructs. […] To test the effects of SMN increasing compounds, we added them to motor neurons two days after lentiviral infection. Over the course of the subsequent three days, we counted live cherry expressing motor neurons on a daily basis.
# Mouse ES-cells expressing cherry fluorescent protein (CFP) under control of a Hb9 promoter, a motor neuron specific transcription factor, were used to differentiate motor neurons as described in Example 31. Motor neurons were infected with the three constructs that were acquired from Open Biosystems (pGIPZ): a non-silencing (NS) shRNA and two constructs with unique shRNA sequences directed against the Smn transcript. […] First we performed motor neuron survival assays to test whether reduced levels of SMN will affect viability of these motor neurons. We differentiated mES cells with Hb9-Chemy Fluorescent Protein (Hb9-CFP) in to motor neurons expressing CFP, that later we dissociated and plated on DIV0. Cells were infected with the NS pGIPZ virus, SMN#1 pGIPZ virus, SMN#2 pGIPZ virus or no virus on DIV 1. The percentage of surviving motor neuron was normalized to the uninfected control culture. […] The percentage of surviving motor neuron was normalized to the culture infected with control non-targeting shRNA.
# [3] = tested on: SMN; assay: High-content fibroblast screen for compounds that modulate SMN level; conditions: human fibroblasts, 2-3 days with compound;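 also: Anti-SMN immunostaining with confocal imaging of nuclear and cytoplasmic SMN and gem counts, tested at 0.1, 1 and 10 uM, fold change relative to negative control wells on each plate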
# Experimental: Human fibroblasts were incubated for 2-3 days with compounds from annotated collections. Cells were fixed and stained with an anti-SMN antibody. Confocal imaging was used to quantify SMN fluorescence in nucleus and cytoplasm and count Gems. Data were collected and subsequently analyzed by clustering compounds by suspected mechanism of action and chemical structure.
# Following optimization of assay conditions on day 0, total of 500 human fibroblasts (GM09677 line) per well were seeded in 384-well plates, on day 3 they were treated with compounds (robot CyBio) from the annotated collections and on the 5 day plates were fixed and stained (robot MAPD) with an anti-SMN antibody and secondary antibody conjugated with 448 fluorophore (FIG. 19a). Compounds from the libraries were added in duplicate at three final concentrations of 10, 1 and 0.1 uM.
# SMN detection was done on the automated confocal microscope Opera PerkinElmer with separate fluorescent exposures to 488 nM laser for and a UV light source to detect nuclei stained with Hoechst 33258 with a 20× objective.
# After scanning on the Opera, an XML file extraction workflow, designed with Inforsense KDE, was used to assemble the data from multiple replicate plates of each HCS experiment including the quantitative parameters described above and chemical identities, chemical concentrations and indications of which wells were used for positive and negative controls. […] The fold-induction of SMN intensity values for each well treated with a library chemical were normalized to the SMN average intensity in multiple negative control wells per plate.
# Since it is not known which form of SMN increase is the most essential, hits that scored in a duplicate at least in two different parameters greater than 1.3 fold at any of the three concentrations were selected (FIG. 19d). […] Further, 220 compounds were screened in the absence of anti-SMN primary antibody with the same assay conditions, to filter out the fluorescent compounds.
# [4] = tested on: PC12 cells; conditions: cited from earlier work
# [5] = tested on: motor neurons; assay: Motor neuron survival (mouse motor neurons, compound treatment); assay type: cell-based
# Experimental: Mouse motor neurons were treated with […] inhibitors. The levels of both cytoplasmic and nuclear SMN were detected and quantified using the method described in Example 2. The results shown in FIG. 14b indicate that […] inhibitors increase motor neuron survival.
# Another way of assessing motor neuron survival is by withdrawing the neurotrophic factors from the media. Briefly, motor neurons are grown in media containing neurotrophic factors. The neurotrophic factors are then withdrawn from the growth media, e.g., cells transferred to media having no neurotrophic factors or neurotrophic factor containing media exchanged with neurotrophic factors lacking media. The compound of interest is added and motor neurons are counted on a daily basis.
# [6] = tested on: kinase phosphorylation sites (Akt, RSK1, p38, GSKa/b, Erk1/2); assay: Phospho-kinase antibody array of PDGF treated fibroblasts; assay type: cell-based, human; conditions: 50 ng/ml, 30 min
# Experimental: Although there is much more known about growth factor specificity and downstream pathways that they activate, whether PDGF effect on SMN was mediated through the binding to the PDGFR was tested next. The SMN-increasing effects of PDGF were blocked by DMPQ and […], two small molecules inhibitors of the PDGF receptor (FIG. 21a). In addition PDGF neutralizing antibody titration were performed in the cells incubated with 20 ng/ml platelet-derived PDGF. Depending on the antibody concentration, gradient of SMN level decrease reaching 40% was observed (FIG. 21b). Moreover, as might be predicted, since there are appreciable levels of PDGF in the media serum in which the fibroblasts are normally maintained, simply adding PDGFR inhibitors DMPQ and AG-1296 to the media decreases the “basal” level of SMN in these cells down to 15-20%, (FIG. 22). Same effect was reproduced by adding PDGF neutralizing antibody to the media, confirming that PDGF can be a physiologically relevant regulator of SMN levels (FIG. 21c). […]
# Cellular lysates from fibroblasts GM09677 treated with 50 ng/ml of PDGF-BB for 30 minutes and untreated control fibroblasts were collected and hybridized with the phosphor-kinase array membranes accordingly to the manufacture protocol (R&D Systems). […] Levels of phosphorylated protein were detected by measurement on the X-ray film (Kodak).
effect on Erk1 and 2 kinase phosphorylation [6],Compound,SMN levels in human iPS derived motor neurons (in words) [1],"survival of motor neurons after SMN knockdown (in words) ([2]; 1.25, 2.5 or 5 uM)",surviving motor neurons compared to DMSO ([2]; by the second day),surviving motor neurons compared to DMSO ([2]; by the third day),SMN level in fibroblast screen (increase or decrease) [3],protection from EGTA induced death [4],motor neuron survival (in words) [5],kinases phosphorylated upon stimulation [6]
,O=C1Cc2c([nH]c3ccc([N+](=O)[O-])cc23)-c2ccccc2N1 [Alsterpaullone],Increased SMN levels,able to rescue the survival; also recorded: rescues the survival of SMN-KD Motor Neurons up to control level,twice the amount of surviving cells,three fold difference,SMN is increase,able to protect PC12 cells from EGTA induced death,,
little effect,PDGF,,,,,,,no effect,"phosphorylation of Akt, RSK1, p38 and GSKa/b"

# — patent publication US20120010178A1, “METHODS AND COMPOUNDS FOR TREATMENT OF NEURODEGENERATIVE DISORDERS” (PRESIDENT AND FELLOWS OF HARVARD COLLEGE, priority 2008, published 2012)
